{"source": "paper PMC9297976", "about": "(Journal of Applied Toxicology, 2021)", "key": {"[1]": {"molecular_target": "T1, medaka Esr1 (mEsr1) (Oryzias latipes, UniProt P50241)", "T1 sequence (P50241 1-620)": "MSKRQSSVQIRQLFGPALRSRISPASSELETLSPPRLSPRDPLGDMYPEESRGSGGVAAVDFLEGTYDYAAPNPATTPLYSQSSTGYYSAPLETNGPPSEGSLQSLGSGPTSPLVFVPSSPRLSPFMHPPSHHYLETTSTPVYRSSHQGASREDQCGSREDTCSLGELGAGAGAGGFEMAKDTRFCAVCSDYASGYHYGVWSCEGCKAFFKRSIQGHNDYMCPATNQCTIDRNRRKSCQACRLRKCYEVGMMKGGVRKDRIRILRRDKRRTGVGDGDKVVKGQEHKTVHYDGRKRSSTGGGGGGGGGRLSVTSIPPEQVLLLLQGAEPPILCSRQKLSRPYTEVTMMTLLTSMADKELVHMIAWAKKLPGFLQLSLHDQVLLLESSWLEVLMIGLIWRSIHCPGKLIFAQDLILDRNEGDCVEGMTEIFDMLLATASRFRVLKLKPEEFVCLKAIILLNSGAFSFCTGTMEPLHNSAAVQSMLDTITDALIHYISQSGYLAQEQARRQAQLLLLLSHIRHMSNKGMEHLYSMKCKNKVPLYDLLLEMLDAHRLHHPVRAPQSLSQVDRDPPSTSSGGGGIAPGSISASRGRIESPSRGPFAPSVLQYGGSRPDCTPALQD", "assay": "cell-based", "design": "species or system Japanese medaka (Oryzias latipes)", "settings": "MAC = 1.0 × 10^−4 M"}, "[2]": {"molecular_target": "T1, medaka Esr1 (mEsr1)", "assay": "Medaka Esr1 reporter gene assay, antagonist assay", "assay_type": "cell-based, Japanese medaka (Oryzias latipes)"}, "[3]": {"molecular_target": "T2, medaka ARβ (mArβ) (Oryzias latipes, UniProt D1MV73)", "T2 sequence (D1MV73 1-744)": "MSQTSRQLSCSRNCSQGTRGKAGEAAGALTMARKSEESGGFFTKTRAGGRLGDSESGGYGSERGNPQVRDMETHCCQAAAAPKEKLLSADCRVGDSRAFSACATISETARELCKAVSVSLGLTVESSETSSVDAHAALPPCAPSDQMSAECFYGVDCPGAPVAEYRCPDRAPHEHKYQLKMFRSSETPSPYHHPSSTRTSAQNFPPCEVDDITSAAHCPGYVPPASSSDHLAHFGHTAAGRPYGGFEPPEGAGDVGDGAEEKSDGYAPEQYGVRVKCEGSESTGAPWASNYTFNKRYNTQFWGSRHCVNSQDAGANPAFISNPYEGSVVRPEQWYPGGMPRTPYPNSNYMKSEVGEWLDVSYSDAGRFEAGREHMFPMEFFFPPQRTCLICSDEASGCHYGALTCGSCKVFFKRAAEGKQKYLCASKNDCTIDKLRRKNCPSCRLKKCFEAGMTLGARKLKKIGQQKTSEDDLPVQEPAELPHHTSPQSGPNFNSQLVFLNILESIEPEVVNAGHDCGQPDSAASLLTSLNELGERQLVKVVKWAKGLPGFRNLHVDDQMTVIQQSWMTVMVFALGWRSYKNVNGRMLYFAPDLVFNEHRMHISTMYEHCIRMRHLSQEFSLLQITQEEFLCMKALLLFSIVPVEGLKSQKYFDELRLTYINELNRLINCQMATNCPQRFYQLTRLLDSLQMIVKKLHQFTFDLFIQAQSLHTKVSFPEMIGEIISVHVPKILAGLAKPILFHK", "assay": "Medaka ARβ reporter gene assay, agonist assay", "assay_type": "cell-based, Japanese medaka (Oryzias latipes)", "settings": "MAC = 1.0 × 10^−4 M"}, "[4]": {"molecular_target": "T2, medaka ARβ (mArβ)", "assay": "Medaka ARβ reporter gene assay, antagonist assay", "assay_type": "cell-based, Japanese medaka (Oryzias latipes)", "settings": "11‐KT spiked at 50 nM (D); MAC = 3.2 × 10^−5 M"}, "[5]": {"system": "Japanese medaka (Oryzias latipes)", "assay": "Fish Short‐Term Reproduction Assay", "assay_type": "in vivo", "settings": "for GSI Female / GSI Male / HSI Male / Length Female / Length Male / Weight Female / Weight Male: completion of exposure"}, "[6]": {"settings": "18.5 mg/L measured, 21 d, sig. ↑ vs control"}, "[7]": {"settings": "measured concentration 2.25 mg/L"}, "[8]": {"settings": "measured concentration 4.76 mg/L"}, "[9]": {"settings": "measured concentration 8.72 mg/L"}, "[10]": {"settings": "measured concentration 18.5 mg/L"}}}
{"compound": "O=C1NC(=O)C(c2ccccc2)(c2ccccc2)N1", "note": "[PHT, Phenitoin, reference compound]", "values": [{"measurement": "Agonistic activity", "setting": "[1]", "value": "NE (MAC = 1.0 × 10^−4 M)"}, {"measurement": "Antagonistic activity on mEsr1 (in words)", "setting": "[2]; antagonist assays", "value": "inhibited the transcriptional activity on mEsr1 by E2"}, {"measurement": "In vitro positive: aEsr", "setting": "[2]; mode of action in which IC50 or IC30 was obtained in RGA", "value": "aEsr"}, {"measurement": "IC50", "setting": "[2]; read-out: Antagonistic activity IC50, E2 spiked at 0.2 nM (A)", "value": 2.1, "unit": "µM"}, {"measurement": "Agonistic activity", "setting": "[3]", "value": "NE (MAC = 1.0 × 10^−4 M)"}, {"measurement": "Antagonistic activity", "setting": "[4]", "value": "NE (MAC = 3.2 × 10^−5 M)^(D)"}, {"measurement": "Fertility rate", "setting": "[5]; 2.25 mg/L measured, 21 d", "value": "92 ± 2.8", "unit": "%"}, {"measurement": "Hepatic VTG, female", "setting": "[5]; 2.25 mg/L measured, 21 d", "value": "685 ± 110", "unit": "ng/mg‐liver"}, {"measurement": "Hepatic VTG, male", "setting": "[5]; 2.25 mg/L measured, 21 d", "value": "1.4 ± 0.5", "unit": "ng/mg‐liver"}, {"measurement": "Mortality", "setting": "[5]; 2.25 mg/L measured, 21 d", "value": 0.0, "unit": "%"}, {"measurement": "Mortality, number of dead fish", "setting": "[5]; 2.25 mg/L measured, 21 d", "value": 0}, {"measurement": "Number of fertilized eggs (per female per day)", "setting": "[5]; 2.25 mg/L measured, 21 d", "value": "18 ± 4.3"}, {"measurement": "Number of total eggs (per female per day)", "setting": "[5]; 2.25 mg/L measured, 21 d", "value": "20 ± 5.0"}, {"measurement": "SSC female (joint plates with papillary processes)", "setting": "[5]; 2.25 mg/L measured, 21 d", "value": "0 ± 0"}, {"measurement": "SSC male (joint plates with papillary processes)", "setting": "[5]; 2.25 mg/L measured, 21 d", "value": "95 ± 14"}, {"measurement": "Abnormal behavior (in words)", "setting": "[5]; 4.76 mg/L and above", "value": "fish frequently showed abnormal behavior such as loss of balance"}, {"measurement": "Fertility rate", "setting": "[5]; 4.76 mg/L measured, 21 d", "value": "86 ± 9.3", "unit": "%"}, {"measurement": "Hepatic VTG, female", "setting": "[5]; 4.76 mg/L measured, 21 d", "value": "1,013 ± 183 ng/mg‐liver"}, {"measurement": "Hepatic VTG, male", "setting": "[5]; 4.76 mg/L measured, 21 d", "value": "4.2 ± 6.7", "unit": "ng/mg‐liver"}, {"measurement": "Mortality", "setting": "[5]; 4.76 mg/L measured, 21 d", "value": 0.0, "unit": "%"}, {"measurement": "Mortality, number of dead fish", "setting": "[5]; 4.76 mg/L measured, 21 d", "value": 0}, {"measurement": "Number of fertilized eggs (per female per day)", "setting": "[5]; 4.76 mg/L measured, 21 d", "value": "17 ± 3.2"}, {"measurement": "Number of total eggs (per female per day)", "setting": "[5]; 4.76 mg/L measured, 21 d", "value": "20 ± 2.0"}, {"measurement": "SSC female (joint plates with papillary processes)", "setting": "[5]; 4.76 mg/L measured, 21 d", "value": "0 ± 0"}, {"measurement": "Hepatic VTG, female", "setting": "[5]; 8.72 mg/L measured, 21 d", "value": "661 ± 199", "unit": "ng/mg‐liver"}, {"measurement": "Hepatic VTG, male", "setting": "[5]; 8.72 mg/L measured, 21 d", "value": "1.0 ± 0.4", "unit": "ng/mg‐liver"}, {"measurement": "Mortality", "setting": "[5]; 8.72 mg/L measured, 21 d", "value": 4.2, "unit": "%"}, {"measurement": "Mortality, number of dead fish", "setting": "[5]; 8.72 mg/L measured, 21 d", "value": 1}, {"measurement": "SSC female (joint plates with papillary processes)", "setting": "[5]; 8.72 mg/L measured, 21 d", "value": "0 ± 0"}, {"measurement": "SSC male (joint plates with papillary processes)", "setting": "[5]; 8.72 mg/L measured, 21 d", "value": "99 ± 21"}, {"measurement": "Fertility rate", "setting": "[5]; 8.72 mg/L measured, 21 d, sig. ↓ vs control", "value": "49 ± 12", "unit": "%"}, {"measurement": "Hepatic VTG, female", "setting": "[5]; 18.5 mg/L measured, 21 d", "value": "693 ± 243", "unit": "ng/mg‐liver"}, {"measurement": "Hepatic VTG, male", "setting": "[5]; 18.5 mg/L measured, 21 d", "value": "1.4 ± 0.9", "unit": "ng/mg‐liver"}, {"measurement": "SSC female (joint plates with papillary processes)", "setting": "[5]; 18.5 mg/L measured, 21 d", "value": "0 ± 0"}, {"measurement": "SSC male (joint plates with papillary processes)", "setting": "[5]; 18.5 mg/L measured, 21 d", "value": "85 ± 15"}, {"measurement": "Mortality", "setting": "[5]; [6]", "value": 33, "unit": "%"}, {"measurement": "Mortality, number of dead fish", "setting": "[5]; [6]", "value": 8}, {"measurement": "Fertility rate", "setting": "[5]; 18.5 mg/L measured, 21 d, sig. ↓ vs control", "value": "18 ± 4.1", "unit": "%"}, {"measurement": "Change of hepatic VTG levels in females (in words)", "setting": "[5]; 21 d", "value": "did not reduce"}, {"measurement": "Fecundity, number of total eggs (in words)", "setting": "[5]; 21 d", "value": "statistically significant decrease"}, {"measurement": "LOECmVTG", "setting": "[5]; LOEC on VTG induction in males", "value": "ND (>18,500) μg/L"}, {"measurement": "LOECREPRO", "setting": "[5]; LOEC on reproduction (fecundity and/or fertility)", "value": "8,720 μg/L"}, {"measurement": "LOECTOX", "setting": "[5]; lowest observed effect concentration on mortality", "value": "4,760 μg/L"}, {"measurement": "GSI Female", "setting": "[5]; [7]", "value": "8.3 ± 0.8", "unit": "%"}, {"measurement": "GSI Male", "setting": "[5]; [7]", "value": "1.32 ± 0.77", "unit": "%"}, {"measurement": "HSI Male", "setting": "[5]; [7]", "value": "1.4 ± 0.36", "unit": "%"}, {"measurement": "Length Female", "setting": "[5]; [7]", "value": "35.9 ± 0.4", "unit": "mm"}, {"measurement": "Length Male", "setting": "[5]; [7]", "value": "35.9 ± 0.6", "unit": "mm"}, {"measurement": "Weight Female", "setting": "[5]; [7]", "value": "466 ± 26", "unit": "mg"}, {"measurement": "Weight Male", "setting": "[5]; [7]", "value": "435 ± 26", "unit": "mg"}, {"measurement": "GSI Female", "setting": "[5]; [8]", "value": "9.0 ± 1.4", "unit": "%"}, {"measurement": "GSI Male", "setting": "[5]; [8]", "value": "1.00 ± 0.26", "unit": "%"}, {"measurement": "HSI Male", "setting": "[5]; [8]", "value": "1.6 ± 0.35", "unit": "%"}, {"measurement": "Length Female", "setting": "[5]; [8]", "value": "35.5 ± 1.0", "unit": "mm"}, {"measurement": "Length Male", "setting": "[5]; [8]", "value": "36.5 ± 1.5", "unit": "mm"}, {"measurement": "Weight Female", "setting": "[5]; [8]", "value": "463 ± 10", "unit": "mg"}, {"measurement": "Weight Male", "setting": "[5]; [8]", "value": "435 ± 63", "unit": "mg"}, {"measurement": "GSI Female", "setting": "[5]; [9]", "value": "19.3 ± 10", "unit": "%"}, {"measurement": "GSI Male", "setting": "[5]; [9]", "value": "1.04 ± 0.31", "unit": "%"}, {"measurement": "HSI Male", "setting": "[5]; [9]", "value": "2.2 ± 0.30", "unit": "%"}, {"measurement": "Length Female", "setting": "[5]; [9]", "value": "36.0 ± 0.5", "unit": "mm"}, {"measurement": "Length Male", "setting": "[5]; [9]", "value": "36.5 ± 0.1", "unit": "mm"}, {"measurement": "Weight Female", "setting": "[5]; [9]", "value": "576 ± 28", "unit": "mg"}, {"measurement": "Weight Male", "setting": "[5]; [9]", "value": "415 ± 31", "unit": "mg"}, {"measurement": "GSI Female", "setting": "[5]; [10]", "value": "17.0 ± 9.7", "unit": "%"}, {"measurement": "GSI Male", "setting": "[5]; [10]", "value": "0.44 ± 0.26", "unit": "%"}, {"measurement": "HSI Male", "setting": "[5]; [10]", "value": "3.4 ± 0.47", "unit": "%"}, {"measurement": "Length Female", "setting": "[5]; [10]", "value": "37.5 ± 1.4", "unit": "mm"}, {"measurement": "Length Male", "setting": "[5]; [10]", "value": "38.4 ± 1.4", "unit": "mm"}, {"measurement": "Weight Female", "setting": "[5]; [10]", "value": "609 ± 67", "unit": "mg"}, {"measurement": "Weight Male", "setting": "[5]; [10]", "value": "507 ± 83", "unit": "mg"}]}
